According to US20010053796A1, “Delta-aminolevulinic acid for prevention and treatment of infection microorganisms and parasite” (priority 2000, published 2001):
Values after ≈ are worked out from the molar mass of the structure shown.

Columns and labels:
Edwardsiella tarda [1] = assay: MIC assay by flat drug disc method; assay type: cell-based; conditions: prepared by the inventors
Procedure: (§1) Pathogenic index bacteria used in this experiment are Edwardsiella tard, Streptococcus sp., Staphylococcus sp., Staphylococcus epidermidis, Pseudomonas sp., Vibrio anguillarum which are collected from the marine fish farm nearby Yeosu. In solid culture, they were cultured in TSA (tryptic soy agar) supplemented with 0.2% NaCl flat media and in liquid culture, they were prepared by culturing in BHI broth for 24 hrs and setting the O.D. value as 1.0. δ-aminolevulinic acid used in this experiment were one on the market (Sigma) and one formulated by inventors of the present invention (Korean patent application No. 1998-41898). Each 0.167 g δ-aminolevulinic acid were dissolved in 1.0 mL sterilized distilled water was used as undiluted solution. 1.0 M δ-aminolevulinic acid was 2-fold diluted with BHI broth by stages up to 64-fold and prepared for test solution to examine pathogenic bacteria proliferation-prohibiting effect. […] In control group, instead of δ-aminolevulinic acid, BHI broth bacteria suspension were mixed with (1:1) and then observed with the same method above. MIC assay by δ-aminolevulinic acid for major pathogenic bacteria of marine cultivating fishes, Edwardsiella tard, Streptococcus sp., Staphylococcus sp., Staphylococcus epidermidis, Pseudomonas sp., Vibrio anguillarum was carried out by flat drug disc method. 100 μL of each bacteria in a culture solution was mixed with fixed amount of top agar and coated to TSA agar. 1.0 M δ-aminolevulinic acid solution was diluted by 2 folds in PBS and 10 μL of each dilution were absorbed to sterilized disc. After incubation at 23˜25° C. for 2˜3 days, antibacterial effect was indicated by measuring the size (mm) of clear zone. In control group, PBS was absorbed into disc instead of δ-aminolevulinic acid dilution solution with the same amount and observed. From the result of this experiment using δ-aminolevulinic acid on the market, proliferation-inhibiting effects of pathogenic bacteria according to δ-aminolevulinic acid concentration are shown in Table 2a (Edwardsiella tard) and Table 2b (Streptococcus sp.). Below 1/32 fold (31 mM) of δ-aminolevulinic acid dilution rate, proliferation of both bacteria was inhibited. […] The experimental result of δ-aminolevulinic acid prepared by the inventors has shown in Table 3 and no difference in effects from δ-aminolevulinic acid on the market.

Pseudomonas sp. = assay: MIC assay by flat drug disc method; assay type: cell-based; conditions: prepared by the inventors
Procedure: as §1

[2] = system: Staphylococcus epidermidis; assay: MIC assay by flat drug disc method; assay type: cell-based; conditions: prepared by the inventors
Procedure: as §1

Staphylococcus sp. = assay: MIC assay by flat drug disc method; assay type: cell-based; conditions: Staphylococcus sp. (second of two lines); prepared by the inventors
Procedure: as §1

Streptococcus sp. = assay: MIC assay by flat drug disc method; assay type: cell-based; conditions: line printed Staphylococcus sp. (first of two), prepared by the inventors
Procedure: as §1

Vibrio anguillarum = assay: MIC assay by flat drug disc method; assay type: cell-based; conditions: prepared by the inventors
Procedure: as §1

Edwardsiella tarda [3] = assay: Prevention effect for artificial infection (abdominal injection of bacteria); assay type: in vivo, Sebastes schlegeli; conditions: for Mortality during Cultivation: dead of 20 fish
Procedure: The water temperature was maintained at 20° C. (±2° C. ) throughout the experiment.
As the same method of above Experiment 1, fishes of both control group and experiment group were prepared and artificially infected by direct abdominal injection of Edwardsiella tarda 10^5 CFU per 1 fish. Each experimental fish was moved to fish tanks for monitoring and monitored for mortality according to infection for 2 weeks and viability after 2 weeks.

Scutica = assay: Prevention effect for Scutica artificial infection of fish body in vivo; conditions: for Mortality during Cultivation: fish number 20
Procedure: The water temperature was maintained at 20° C. (±2° C.) throughout the experiment.

[4] = Administration to fish tanks, 0.01 ppm, Bastardhalibut
[5] = Administration to fish tanks, 0.01 ppm, Sebastes schlegeli
[6] = Administration to fish tanks, 0.1 pm, Bastardhalibut
[7] = Administration to fish tanks, 0.1 pm, Sebastes schlegeli
[8] = Administration to fish tanks, 1.0 ppm, Bastardhalibut
[9] = Administration to fish tanks, 1.0 ppm, Sebastes schlegeli
[10] = Administration to fish tanks, 5.0 ppm, Bastardhalibut
[11] = Administration to fish tanks, 5.0 ppm, Sebastes schlegeli
[12] = Administration to fish tanks, 10 ppm, Bastardhalibut
[13] = Administration to fish tanks, 10 ppm, Sebastes schlegeli
[14] = Administration to fish tanks, 50 ppm, Bastardhalibut
[15] = Administration to fish tanks, 50 ppm, Sebastes schlegeli
[16] = Oral Adminstration, 0.1 ppm, Bastardhalibut
[17] = Oral Adminstration, 0.1 ppm, Sebastes schlegeli
[18] = Oral Adminstration, 1.0 ppm, Bastardhalibut
[19] = Oral Adminstration, 1.0 ppm, Sebastes schlegeli
[20] = Oral Adminstration, 5 ppm, Bastardhalibut
[21] = Oral Adminstration, 5 ppm, Sebastes schlegeli
[22] = Oral Adminstration, 10 ppm, Bastardhalibut
[23] = Oral Adminstration, 10 ppm, Sebastes schlegeli
[24] = Oral Adminstration, 50 ppm, Bastardhalibut
[25] = Oral Adminstration, 50 ppm, Sebastes schlegeli
[26] = Oral Adminstration, 100 ppm, Bastardhalibut
[27] = Oral Adminstration, 100 ppm, Sebastes schlegeli

## NCC(=O)CCC(=O)O [δ-aminolevulinic acid]
Edwardsiella tarda [1]
  MIC: 56 µg/mL (≈ 427 µM)
Pseudomonas sp.
  MIC: 42.2 µg/mL (≈ 322 µM)
[2]
  MIC: 62 µg/mL (≈ 473 µM)
Staphylococcus sp.
  MIC: 59.6 µg/mL (≈ 455 µM)
Streptococcus sp.
  MIC: 72.9 µg/mL (≈ 556 µM)
Vibrio anguillarum
  MIC: 29.9 µg/mL (≈ 228 µM)
Edwardsiella tarda [3]; orally, 0.01 ppm in feed
  Viability: 70%
  Mortality during Cultivation: 6
Edwardsiella tarda [3]; orally, 1.0 ppm in feed
  Viability: 80%
  Mortality during Cultivation: 4
Edwardsiella tarda [3]; orally, 10 ppm in feed
  Viability: 85%
  Mortality during Cultivation: 3
Edwardsiella tarda [3]; orally, 100 ppm in feed
  Viability: 90%
  Mortality during Cultivation: 2
Edwardsiella tarda [3]; to fish tanks, 0.01 ppm
  Viability: 65%
  Mortality during Cultivation: 7
Edwardsiella tarda [3]; to fish tanks, 0.1 ppm
  Viability: 75%
  Mortality during Cultivation: 5
Edwardsiella tarda [3]; to fish tanks, 1.0 ppm
  Viability: 90%
  Mortality during Cultivation: 2
Edwardsiella tarda [3]; to fish tanks, 10 ppm
  Viability: 85%
  Mortality during Cultivation: 3
Scutica; [4]
  Viablity (%): 60%
  Mortality during Cultivation: 8
Scutica; [5]
  Viablity (%): 60%
  Mortality during Cultivation: 8
Scutica; [6]
  Viablity (%): 75%
  Mortality during Cultivation: 7
Scutica; [7]
  Viablity (%): 60%
  Mortality during Cultivation: 8
Scutica; [8]
  Viablity (%): 75%
  Mortality during Cultivation: 5
Scutica; [9]
  Viablity (%): 70%
  Mortality during Cultivation: 6
Scutica; [10]
  Viablity (%): 85%
  Mortality during Cultivation: 3
Scutica; [11]
  Viablity (%): 85%
  Mortality during Cultivation: 3
Scutica; [12]
  Viablity (%): 85%
  Mortality during Cultivation: 3
Scutica; [13]
  Viablity (%): 85%
  Mortality during Cultivation: 3
Scutica; [14]
  Viablity (%): 80%
  Mortality during Cultivation: 4
Scutica; [15]
  Viablity (%): 80%
  Mortality during Cultivation: 4
Scutica; [16]
  Viablity (%): 70%
  Mortality during Cultivation: 6
Scutica; [17]
  Viablity (%): 65%
  Mortality during Cultivation: 7
Scutica; [18]
  Viablity (%): 70%
  Mortality during Cultivation: 6
Scutica; [19]
  Viablity (%): 75%
  Mortality during Cultivation: 5
Scutica; [20]
  Viablity (%): 85%
  Mortality during Cultivation: 3
Scutica; [21]
  Viablity (%): 85%
  Mortality during Cultivation: 3
Scutica; [22]
  Viablity (%): 95%
  Mortality during Cultivation: 1
Scutica; [23]
  Viablity (%): 95%
  Mortality during Cultivation: 1
Scutica; [24]
  Viablity (%): 95%
  Mortality during Cultivation: 1
Scutica; [25]
  Viablity (%): 95%
  Mortality during Cultivation: 1
Scutica; [26]
  Viablity (%): 90%
  Mortality during Cultivation: 2
Scutica; [27]
  Viablity (%): 95%
  Mortality during Cultivation: 1
